The values below come from patent US12678386B2, “Organic compounds as TRPM8 activators” (Givaudan SA, priority 2021, dated 2026).

T1 sequence (Q7Z2W7 whole entry): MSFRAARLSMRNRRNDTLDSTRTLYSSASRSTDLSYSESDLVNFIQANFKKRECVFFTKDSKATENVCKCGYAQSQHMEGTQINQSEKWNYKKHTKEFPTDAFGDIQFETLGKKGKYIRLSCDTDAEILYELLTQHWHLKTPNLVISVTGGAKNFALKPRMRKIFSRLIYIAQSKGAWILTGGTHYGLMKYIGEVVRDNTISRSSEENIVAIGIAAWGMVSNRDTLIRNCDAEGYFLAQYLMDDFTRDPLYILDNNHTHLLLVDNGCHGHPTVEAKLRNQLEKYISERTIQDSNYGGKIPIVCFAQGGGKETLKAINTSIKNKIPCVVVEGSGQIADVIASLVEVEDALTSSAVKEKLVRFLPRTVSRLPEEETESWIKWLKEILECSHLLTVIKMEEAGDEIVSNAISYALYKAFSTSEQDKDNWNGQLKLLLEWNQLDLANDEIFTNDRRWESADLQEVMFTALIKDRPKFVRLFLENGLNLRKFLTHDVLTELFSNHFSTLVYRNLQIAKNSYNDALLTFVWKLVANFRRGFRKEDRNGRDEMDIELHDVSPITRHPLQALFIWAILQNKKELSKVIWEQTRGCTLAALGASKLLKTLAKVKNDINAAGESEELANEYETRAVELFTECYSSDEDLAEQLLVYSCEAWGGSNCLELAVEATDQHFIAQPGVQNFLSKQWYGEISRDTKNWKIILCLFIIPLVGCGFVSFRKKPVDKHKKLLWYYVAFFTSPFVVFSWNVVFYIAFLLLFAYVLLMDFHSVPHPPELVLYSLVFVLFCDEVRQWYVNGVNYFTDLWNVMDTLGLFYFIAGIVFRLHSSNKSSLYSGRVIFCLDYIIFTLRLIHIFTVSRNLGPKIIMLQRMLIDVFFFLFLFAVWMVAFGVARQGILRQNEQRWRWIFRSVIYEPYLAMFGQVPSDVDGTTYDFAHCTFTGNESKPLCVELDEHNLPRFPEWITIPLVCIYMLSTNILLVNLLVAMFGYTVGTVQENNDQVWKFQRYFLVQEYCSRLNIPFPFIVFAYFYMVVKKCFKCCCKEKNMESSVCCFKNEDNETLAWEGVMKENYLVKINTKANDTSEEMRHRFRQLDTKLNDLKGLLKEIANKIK

This assay addresses T1, hTRPM8 (Homo sapiens, UniProt Q7Z2W7).
T1 construct: expressed in transfected cells
The experiment in a line: Assay on TRPM8 modulators: calcium imaging (Fluo-4, Flexstation) in HEK293 cell line stably expressing hTRPM8. Particulars: HEK293 cells stably expressing hTRPM8; calcium influx, sigmoidal dose-response fit. It counts as cell-based. As to the method: A HEK293 cell line stably expressing hTRPM8 was generated according to Klein et al., (Chem. Senses 36: 649-658, 2011) and receptor activation was monitored by calcium imaging in a Flexstation. For Ca-imaging assays of TRPM8 channel activation, cells were seeded on day 0 at a density of 12000 cells per well in Dulbecco's modified Eagle medium (DMEM) containing 9% foetal bovine serum in black, clear bottom 96-well plates that had been coated with 0.001% polyethyleneimine (molecular weight=60 000, Acros Organics). On day 2, agonists were evaluated via calcium imaging using Fluo-4. Briefly, growth medium was discarded, and the cells were incubated in the dark for 1 h at 37° C. in 50 μL loading buffer consisting of 2.7 μM Fluo-4 AM (Invitrogen) and […] probenecid (Sigma-Aldrich) in DMEM (without serum). After incubation, the plates were washed five times with 100 μL of assay buffer (in mM: 130 NaCl, 5 KCl, 10 HEPES, 2 CaCl2, and 10 glucose, pH7.4.) and further incubated in the dark at room temperature for 30 min. The cells were then washed five times with 100 μL assay buffer and then calcium influx to serial dilutions of inventive compounds were measured in a Flexstation 3 (Molecular Devices). Receptor activation was initiated following addition of 20 μl of a 10-fold concentrated ligand stock solution, which is also prepared in assay buffer. Fluorescence was continuously monitored for 15 seconds prior to ligand addition and for 105 seconds after ligand addition, for a total of 120 seconds. Maximal receptor activation in relation to solvent control and relative to 31.6 μM menthol is determined. Data from serial dilutions were processed with a KNIME workflow to fit a sigmoidal dose-response curve and to extrapolate EC50 values.
Regarding `CCCCCC(=O)n1cc(-c2ccc(C)cc2)nc1C1CCCCN1C(=O)C(C)SC` (stereo not shown) [1-(2-(1-(2-(methylthio)propanoyl)piperidin-2-yl)-4-(p-tolyl)-1H-imidazol-1-yl)hexan-1-one], the EC50 was 0.05 to 0.3 µM.
For the compound `CSC(C)C(=O)N1CCCCC1c1nc(-c2ccc(C)cc2)cn1C(C)=O` (stereo not shown) [1-(2-(1-acetyl-4-(p-tolyl)-1 H-imidazol-2-yl)piperidin-1-yl)-2-(methylthio)propan-1-one], the EC50 is 0.05 to 0.3 µM.
`CSC(C)C(=O)N1CCCCC1c1nc(-c2ccc(C)cc2)cn1C(=O)C(C)SC` (stereo not shown) [2-(methylthio)-1-(2-(1-(2-(methylthio)propanoyl)-4-(p-tolyl)-1H-imidazol-2-yl)piperidin-1-yl)propan-1-one]: the EC50 is less than 0.05 µM.
`CSC(C)C(=O)N1CCCCC1c1nc(-c2ccc(C)cc2)cn1C(=O)c1ccccc1` (stereo not shown) [1-(2-(1-benzoyl-4-(p-tolyl)-1 H-imidazol-2-yl)piperidin-1-yl)-2-(methylthio)propan-1-one]: the EC50 is less than 0.05 µM.
As for `CCCCCCCCCCCC(=O)n1cc(-c2ccc(C)cc2)nc1C1CCCCN1C(=O)C(C)SC` (stereo not shown) [1-(2-(1-(2-(methylthio)propanoyl)piperidin-2-yl)-4-(p-tolyl)-1H-imidazol-1-yl)dodecan-1-one], the figure is 0.05 to 0.3 µM; as for `CCC(C)C(=O)N1CCCCC1c1nc(-c2ccc(C)cc2)cn1C(C)=O` (stereo not shown) [1-(2-(1-acetyl-4-(p-tolyl)-1H-imidazol-2-yl)piperidin-1-yl)-2-methylbutan-1-one], less than 0.05 µM.
As for `CCC(=O)N1CCCCC1c1nc(-c2ccc(C)cc2)cn1C(=O)CC` (stereo not shown) [1-(2-(1-propionyl-4-(p-tolyl)-1 H-imidazol-2-yl)piperidin-1-yl)propan-1-one], the EC50 fell in the range of 1 to 35 µM.
Take `Cc1ccc(OCC(=O)N(Cc2cccs2)c2ccn(C(=O)c3ccccc3)n2)cc1` [N-(1-benzoyl-1H-pyrazol-3-yl)-N-(thiophen-2-ylmethyl)-2-(p-tolyloxy)acetamide]: the concentration for a half-maximal effect (EC50) is less than 0.05 µM.
For the compound `CCC(C)C(=O)N1CCCCC1c1nc(-c2ccc(C)cc2)cn1C(=O)[C@@H]1C[C@H](C)CC[C@H]1C(C)C` (stereo partly drawn) [1-(2-(1-((1R,2S,5R)-2-isopropyl-5-methylcyclohexane-1-carbonyl)-4-(p-tolyl)-1H-imidazol-2-yl)piperidin-1-yl)-2-methylbutan-1-one], the EC50 fell in the range of 1 to 35 µM.
For `CC(=O)n1ccc(N(Cc2cccs2)C(=O)COc2ccc(C)cc2)n1` [N-(1-acetyl-1H-pyrazol-3-yl)-N-(thiophen-2-ylmethyl)-2-(p-tolyloxy)acetamide], the 50% effective concentration (EC50) was less than 0.05 µM.
With `CCC(C)C(=O)N1CCCCC1c1nc(-c2ccc(C)cc2)cn1C(=O)COCc1ccccc1` (stereo not shown) [1-(2-(1-(2-(benzyloxy)acetyl)-4-(p-tolyl)-1H-imidazol-2-yl)piperidin-1-yl)-2-methylbutan-1-one], the EC50 is less than 0.05 µM.
On to `CCCCCC(=O)n1cc(-c2ccc(C)cc2)nc1C1CCCCN1C(=O)C(C)CC` (stereo not shown) [1-(2-(1-(2-methylbutanoyl)piperidin-2-yl)-4-(p-tolyl)-1H-imidazol-1-yl)hexan-1-one], for which the 50% effective concentration (EC50) is less than 0.05 µM.
Turning to `Cc1ccc(OCC(=O)N(Cc2cccs2)c2ccn(C(=O)C(C)C)n2)cc1` [N-(1-isobutyryl-1H-pyrazol-3-yl)-N-(thiophen-2-ylmethyl)-2-(p-tolyloxy)acetamide], the EC50 was less than 0.05 µM.
Take `Cc1ccc(-c2cn(C(=O)C(C)C)c(C3CCCCN3C(=O)C(C)C)n2)cc1` (stereo not shown) [1-(2-(1-isobutyryl-4-(p-tolyl)-1H-imidazol-2-yl)piperidin-1-yl)-2-methylpropan-1-one]: the EC50 was 0.05 to 0.3 µM.
As for `CCC(C)C(=O)N1CCCCC1c1nc(-c2ccc(C)cc2)cn1C(=O)COC` (stereo not shown) [1-(2-(1-(2-methoxyacetyl)-4-(p-tolyl)-1H-imidazol-2-yl)piperidin-1-yl)-2-methylbutan-1-one], the EC50 was less than 0.05 µM.
Turning to `CCCCCCCCCCCC(=O)n1cc(-c2ccc(C)cc2)nc1C1CCCCN1C(=O)C(C)CC` (stereo not shown) [1-(2-(1-(2-methylbutanoyl)piperidin-2-yl)-4-(p-tolyl)-1H-imidazol-1-yl)dodecan-1-one], the EC50 lay in the range of 0.3 to 1 µM.
As for `CSC(C)C(=O)N1CCCCC1c1nc(-c2ccc(C)cc2)cn1C(=O)[C@@H]1C[C@H](C)CC[C@H]1C(C)C` (stereo partly drawn) [1-(2-(1-((1R,2S,5R)-2-isopropyl-5-methylcyclohexane-1-carbonyl)-4-(p-tolyl)-1H-imidazol-2-yl)piperidin-1-yl)-2-(methylthio)propan-1-one], the figure is 0.3 to 1 µM; as for `CCC(C)C(=O)N1CCCCC1c1nc(-c2ccc(C)cc2)cn1C(=O)C(C)C` (stereo not shown) [1-(2-(1-isobutyryl-4-(p-tolyl)-1 H-imidazol-2-yl)piperidin-1-yl)-2-methylbutan-1-one], 0.05 to 0.3 µM.
Take `CSC(C)C(=O)N1CCCCC1c1nc(-c2ccc(C)cc2)cn1C(=O)C(C)C` (stereo not shown) [1-(2-(1-isobutyryl-4-(p-tolyl)-1H-imidazol-2-yl)piperidin-1-yl)-2-(methylthio)propan-1-one]: the EC50 is less than 0.05 µM.
